We go through two molecules from US20150258104A1, “USE OF N[…] THE TREATMENT OF PAIN” (DemeRX, Inc., priority 2014, published 2015).

Data set [1] in a line: Pharmacokinetics of noribogaine in healthy volunteers, ascending single oral dose (plasma). As to conditions: mean, n = 6; for CL/F: fasted, plasma.
Data set [2] in a line: Treatment emergent adverse events in opioid-dependent patients.
Data set [3] in a line: Cold pressor test in healthy volunteers. It is filed as in vivo, human. As for the experimental part: Analgesic effect was assessed based on duration of hand immersion in ice water and on visual analog scale (VAS) pain scores upon hand removal from the water bath.
(§1) Safety and tolerability of noribogaine were tested in the group of volunteers from Example 1. […] Safety evaluations included clinical monitoring, recording of adverse events (AEs), safety laboratory tests, vital signs, ECG telemetry from −2 h to 6 h after dosing, and 12-lead electrocardiograms (ECGs) up to 216 hours post-dosing.

Data set [4] in a line: Pharmacokinetics in opioid-dependent patients, Phase IB study, single dose. As to conditions: human, serum; for half-life / Vd/F: opioid-dependent patients.
Data set [5] can be described thus: Efficacy in opioid-dependent patients: time to resumption of OST and withdrawal scales (COWS, SOWS, OOWS). Type of data set: in vivo, human. The procedure:
The efficacy of noribogaine in humans was evaluated in opioid-dependent participants in a randomized, placebo-controlled, double-blind trial. […] See U.S. application Ser. No. 14/214,157, filed Mar. 14, 2014 and Ser. No. 14/346,655, filed Mar. 21, 2014, which are incorporated herein by reference in their entireties.
Three cohorts of nine (9) subjects (6 administered noribogaine and 3 administered placebo in each cohort) were evaluated for tolerability, pharmacokinetics, and efficacy. Cohort 1 received a single dose of 60 mg noribogaine or placebo. Cohort 2 received a single dose of 120 mg noribogaine or placebo. Cohort 3 received a single dose of 180 mg noribogaine or placebo. […] Headaches were frequent in the placebo and 60 mg noribogaine treatment groups, but were attenuated in the 120 mg and 180 mg dose groups.
Patients were evaluated based on the Clinical Opiate Withdrawal Scale (COWS), Subjective Opiate Withdrawal Scale (SOWS), and Objective Opiate Withdrawal Scale (OOWS) scoring systems over the period of time between administration of noribogaine (or placebo) until resumption of OST. These scales are outlined in Guidelines for the Psychosocially Assisted Pharmacological Treatment of Opioid Dependence, World Health Organization, Geneva (2009), Annex 10, which is incorporated herein by reference in its entirety. The scales measure the intensity of withdrawal symptoms, based on clinical, subjective, and objective indicia.

A short description of data set [6]: Safety and tolerability of noribogaine in healthy humans. It is filed as in vivo, human. As for the experimental part:
(§2) Pulse oximetry and capnography data were collected continuously using a GE Carescape B650 monitoring system from 2 hours prior to dosing and until six hours after dosing, and thereafter at 12, 24, 48 and 72 hours post-dosing. […] Pupillary miosis was assessed by pupillometry.
as §1

Data set [7] in a line: Pupillometry (pupillary miosis) in healthy volunteers. It is filed as in vivo, human. As to conditions: 3-60 mg, p>0.9. As for the experimental part:
as §2
Summary statistics (means, standard deviations, and coefficients of variation) were determined for each dose group for safety laboratory test data, ECG and pharmacokinetic parameters, and pharmacodynamic variables. Categorical variables were analysed using counts and percentages. Dose-proportionality of AUC and Cmax was assessed using linear regression. The effect of dose on pharmacodynamic parameter values over time was assessed using two-factor analysis of variance (ANOVA). Pairwise comparisons (with Tukey-Kramer adjustment) between each dose group to the placebo were conducted at each time point using the least squares estimates obtained from the ANOVA, using SAS Proc Mixed (SAS ver 6.0).

[8] abbreviates: metabolite in plasma after single oral 30 mg noribogaine.
Where [9] appears, read: metabolite in plasma after single oral 60 mg noribogaine.
Where [10] appears, read: 60 mg, mean ± SD, Cohort 1 (60 mg).
Where [11] appears, read: 120 mg, range, Cohort 2 (120 mg).
Where [12] appears, read: 180 mg, range, Cohort 3 (180 mg).

Consider `CC[C@H]1C[C@@H]2C[C@H]3c4[nH]c5ccc(OC6OC(C(=O)O)C(O)C(O)C6O)cc5c4CCN(C2)[C@@H]13` (stereo partly shown) [noribogaine glucuronide], for which, in data set [1] (setting [8]), the AUC0-216 is 25.7 ng·h/mL; the “AUC0-∞” value is 25.8 ng·h/mL; the Cmax (commonly the maximum level reached in the sampled fluid or tissue) stood at 1.8 ng/mL; the Tmax (in general, the time at which the peak concentration occurs) was determined as 3.0 h. In addition, the t1/2 in data set [1] (setting [8]) worked out at 20.6 h. Moreover, in data set [1] (setting [9]), the AUC0-216 was determined as 65.0 ng·h/mL, the “AUC0-∞” value amounted to 67.1 ng·h/mL, the Cmax amounted to 4.1 ng/mL and the Tmax was 3.8 h. In addition, in data set [1] (setting [9]), the t1/2 amounted to 23.1 h.

Regarding `CC[C@H]1CC2C[C@H]3c4[nH]c5ccc(O)cc5c4CCN(C2)C13` [noribogaine], the headaches result is listed as “frequent” in data set [2] (60 mg treatment group); “attenuated” in data set [2] (120 mg and 180 mg dose groups). Further, the “duration of hand immersion, each dose group versus placebo (ANOVA)” value in data set [3] (ice water, p>0.9) is on record as “no statistically significant differences”. Moreover, the “VAS pain scores, each dose group versus placebo (ANOVA)” value in data set [3] (upon hand removal, p=0.17) is reported as “no statistically significant differences”. In addition, the results for the AUC in data set [4] (60 mg), in data set [4] (120 mg) and in data set [4] (180 mg) were 1120 to 2550 ng·h/mL, 1600 to 5770 ng·h/mL and 3730 to 12300 ng·h/mL, respectively. For the same molecule, the AUC(0-t) – broadly, the area under the concentration-time curve up to a stated or last time point – is 1090 to 2530 ng·h/mL in data set [4] (60 mg), 1560 to 5640 ng·h/mL in data set [4] (120 mg) and 3720 to 10400 ng·h/mL in data set [4] (180 mg). For the same molecule, the values for the Cmax in data set [4] (60 mg), in data set [4] (120 mg) and in data set [4] (180 mg) were 41.3 to 113 ng/mL, 139 to 230 ng/mL and 205 to 338 ng/mL, respectively. In addition, the Tmax in data set [4] (60 mg) lay in the range of 2.5 to 5 h; in data set [4] (120 mg), 0.98 to 4.02 h; in data set [4] (180 mg), 3 to 8 h. The half-life (usually the time needed for the level to fall by half in the phase considered) in data set [4] (setting [10]) was 1760 ± 437 min; in data set [4] (60 mg, range, Cohort 1 (60 mg)) it was 1100 to 2240 min; in data set [4] (setting [11]), 1310 to 2900 min; in data set [4] (setting [12]), 1160 to 2090 min. Moreover, the Vd/F (as a rule, the apparent distribution volume after extravascular dosing) in data set [4] (setting [10]) is 1440 ± 854 L; in data set [4] (60 mg, range, Cohort 1 (60 mg)), 620 to 2770 L; in data set [4] (setting [11]), 824 to 5240 L; in data set [4] (setting [12]) it was 581 to 1610 L. Also, in data set [5] (120 mg), the “withdrawal symptoms (COWS, OOWS, SOWS), first six hours after dosing” value was “fewer withdrawal symptoms than the other patients”. For the same molecule, the “time to resumption of OST, compared with untreated patients” value in data set [5] (180 mg, also longer than 60 mg group) was above 7 h. In addition, the “withdrawal symptoms (COWS, OOWS, SOWS), noribogaine versus placebo” value in data set [5] (60, 120, 180 mg) is “Patients administered placebo generally experienced more withdrawal symptoms than patients who were administered noribogaine”. Moreover, the adverse events reported entry in data set [6] (3 mg dose group, by two subjects) was “five”; in data set [6] (10 mg dose group, single subject) it was “one”; in data set [6] (30 mg dose group, single subject), “one”. The “intensity of adverse events” value in data set [6] (all dose groups, all resolved prior to study completion) is on record as “mild-moderate”. Further, the “pupil diameter, each dose group versus placebo (ANOVA, baseline adjusted)” value in data set [7] is on record as “no statistically significant differences”. In addition, the CL/F (in general, clearance divided by bioavailability, as obtained after extravascular dosing) in data set [1] (single oral 3 mg) was 41.4 L/h; in data set [1] (single oral 10 mg), 42.3 L/h; in data set [1] (single oral 30 mg) it was 46.9 L/h; in data set [1] (single oral 60 mg) it was 34.0 L/h.
